Assay results: US20140228445A1, “ALKYNE DERIVATIVES AS SPHINGOSINE 1-PHOSPHATE (S1P) RECEPTOR MODULATORS” (Allergan, Inc., priority 2013, published 2014)

What follows are compounds tested against T1, human S1P1 receptor (Homo sapiens, UniProt P21453) (assay: GTP γ35S binding assay for S1P1 activity). Settings: membranes of cells stably expressing the S1P1 receptor, test range 0.08 to 5,000 nM.
T1 construct: expressed in transfected cells; membranes used
T1 sequence (P21453 whole entry): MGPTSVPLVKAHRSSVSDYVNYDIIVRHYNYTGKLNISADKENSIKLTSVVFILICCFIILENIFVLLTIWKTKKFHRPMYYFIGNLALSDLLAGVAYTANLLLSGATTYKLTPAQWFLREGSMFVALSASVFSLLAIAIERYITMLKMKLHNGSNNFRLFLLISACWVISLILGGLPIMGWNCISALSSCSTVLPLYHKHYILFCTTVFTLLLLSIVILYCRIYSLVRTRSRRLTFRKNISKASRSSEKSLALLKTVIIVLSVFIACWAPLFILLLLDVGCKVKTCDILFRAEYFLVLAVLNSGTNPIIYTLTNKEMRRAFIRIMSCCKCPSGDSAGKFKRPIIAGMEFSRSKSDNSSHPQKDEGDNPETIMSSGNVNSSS
Format: biochemical
Description: Compounds were synthesized and tested for S1P1 activity using the GTP γ^35S binding assay. These compounds may be assessed for their ability to activate or block activation of the human S1P1 receptor in cells stably expressing the S1P1 receptor.
GTP γ^35S binding was measured in the medium containing (mM) HEPES 25, pH 7.4, MgCl2 10, NaCl 100, dithitothreitol 0.5, digitonin 0.003%, 0.2 nM GTP γ^35S, and 5 μg membrane protein in a volume of 150 μl. Test compounds were included in the concentration range from 0.08 to 5,000 nM unless indicated otherwise. Membranes were incubated with 100 μM 5′-adenylylimmidodiphosphate for 30 min, and subsequently with 10 μM GDP for 10 min on ice. Drug solutions and membrane were mixed, and then reactions were initiated by adding GTP γ^35S and continued for 30 min at 25° C. Reaction mixtures were filtered over Whatman GF/B filters under vacuum, and washed three times with 3 mL of ice-cold buffer (HEPES 25, pH7.4, MgCl2 10 and NaCl 100). Filters were dried and mixed with scintillant, and counted for ^35S activity using a β-counter. Agonist-induced GTP γ^35S binding was obtained by subtracting that in the absence of agonist. Binding data were analyzed using a non-linear regression method. In case of antagonist assay, the reaction mixture contained 10 nM S1P in the presence of test antagonist at concentrations ranging from 0.08 to 5000 nM.
Compound `Cc1ccc(CC(C#Cc2ccc(CCC(N)(CO)CO)cc2)c2cc(F)cc(F)c2)cc1C` (stereo not drawn) [Compound 1, 2-Amino-2-(2-{4-[3-(3,5-difluorophenyl)-4-(3,4-dimethylphenyl)but-1-yn-1-yl]phenyl}ethyl)propane-1,3-diol] has an EC50 of 35.5 nM. `Cc1cccc(C(C#Cc2ccc(CCC(N)(CO)CO)cc2)Cc2ccc(C)c(C)c2)c1` (stereo not drawn) [Compound 3, 2-Amino-2-(2-{4-[4-(3,4-dimethylphenyl)-3-(3-methylphenyl)but-1-yn-1-yl]phenyl}ethyl)propane-1,3-diol] was tested, and the EC50 was 416 nM. For `Cc1ccc(CC(C#Cc2ccc(CCC(N)(CO)CO)cc2)c2cccc(F)c2)cc1C` (stereo not drawn) [Compound 2, 2-Amino-2-(2-{4-[4-(3,4-dimethylphenyl)-3-(3-fluorophenyl)but-1-yn-1-yl]phenyl}ethyl)propane-1,3-diol], the EC50 was 3.27 nM.
